The source of these data is patent US12384788B2, “1,4-dihydrobenzo[d]pyrazolo[3,4-f][1,3]diazepine derivatives and related compounds as LRRK2, NUAK1 and/or TYK2 kinase modulators for the treatment of e.g. autoimmune disease” (Origenis GMBH, priority 2019, dated 2025).

The target of this test is T1, wt human TYK2, catalytic site (Homo sapiens, UniProt P29597).
T1 construct: wt human TYK2, catalytic site; purchased SignalChem
T1 sequence (P29597 897-1176 limits assumed): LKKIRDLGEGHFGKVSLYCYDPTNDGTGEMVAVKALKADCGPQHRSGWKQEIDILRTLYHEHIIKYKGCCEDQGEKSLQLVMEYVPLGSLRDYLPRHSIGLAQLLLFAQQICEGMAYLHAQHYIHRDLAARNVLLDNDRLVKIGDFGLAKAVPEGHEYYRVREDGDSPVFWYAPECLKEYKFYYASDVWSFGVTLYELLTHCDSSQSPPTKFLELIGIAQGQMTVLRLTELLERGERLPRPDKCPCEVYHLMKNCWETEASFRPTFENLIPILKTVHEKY
Nature of the test: HTRF KinEASE assay, TYK2. Type of test: biochemical. As to conditions: 1 μM ATP; read-out: IC50, inhibitory activity toward TYK2. As for the experimental part: Basic protocol for HTRF KinEASE assay (Cisbio/FRA) inhibitor studies involved two steps:
Enzymatic step: Addition of 4 μl of test compound in corresponding DMSO dilutions, 4 μl of kinase/substrate mixture, 2 μl of ATP into 384 well small volume plates. Incubation for at least 30 minutes at room temperature.
Detection step: Addition of 5 μl antibody and 5 μl streptavidin-XL665, read plate after 60 minutes. Data analysis of emission ratios according to KinEASE assay protocol.
Kinase and assay components were adjusted to final concentrations according to the kit protocol. For TYK2: 2 nM wt human TYK2, catalytic site (SignalChem/CAN), 1 μM HTRF KinEASE-TK Substrate-biotin, 1 μM ATP in 1× Kinase Buffer
In general terms: TR-FRET usually uses a lanthanide donor and a delayed reading to cut background.

In the case of `Fc1cccc(Cl)c1C1=Nc2cn[nH]c2-c2[nH]ncc2N1` [Compound 89, 5-(2-chloro-6-fluorophenyl)-4,9-dihydro-1H-dipyrazolo[4,3-d:3′,4′-f][1,3]diazepine], the 50% inhibitory concentration (IC50) was 10 to 100 nM.

By IC50 is commonly meant the concentration that inhibits the measured activity by half.
